The values below come from patent US8435986B2, “Bicyclic traizole derivatives for treating of tumors” (Merck Patent Gesellschaft mit beschrankter Haftung, priority 2008, dated 2013).

Structures are written as SMILES. pIC50: −log10 of the molar value. Where a name gives a salt, the structure may show the parent alone.

The target of test [1] is T1, Met kinase (Homo sapiens, UniProt P08581). Description: Met kinase inhibition, cellular assay. Type of test: cell-based. To be noted: read-out: Cellular assay IC50 (cell).
Target sequence in this assay (P08581 25-1390): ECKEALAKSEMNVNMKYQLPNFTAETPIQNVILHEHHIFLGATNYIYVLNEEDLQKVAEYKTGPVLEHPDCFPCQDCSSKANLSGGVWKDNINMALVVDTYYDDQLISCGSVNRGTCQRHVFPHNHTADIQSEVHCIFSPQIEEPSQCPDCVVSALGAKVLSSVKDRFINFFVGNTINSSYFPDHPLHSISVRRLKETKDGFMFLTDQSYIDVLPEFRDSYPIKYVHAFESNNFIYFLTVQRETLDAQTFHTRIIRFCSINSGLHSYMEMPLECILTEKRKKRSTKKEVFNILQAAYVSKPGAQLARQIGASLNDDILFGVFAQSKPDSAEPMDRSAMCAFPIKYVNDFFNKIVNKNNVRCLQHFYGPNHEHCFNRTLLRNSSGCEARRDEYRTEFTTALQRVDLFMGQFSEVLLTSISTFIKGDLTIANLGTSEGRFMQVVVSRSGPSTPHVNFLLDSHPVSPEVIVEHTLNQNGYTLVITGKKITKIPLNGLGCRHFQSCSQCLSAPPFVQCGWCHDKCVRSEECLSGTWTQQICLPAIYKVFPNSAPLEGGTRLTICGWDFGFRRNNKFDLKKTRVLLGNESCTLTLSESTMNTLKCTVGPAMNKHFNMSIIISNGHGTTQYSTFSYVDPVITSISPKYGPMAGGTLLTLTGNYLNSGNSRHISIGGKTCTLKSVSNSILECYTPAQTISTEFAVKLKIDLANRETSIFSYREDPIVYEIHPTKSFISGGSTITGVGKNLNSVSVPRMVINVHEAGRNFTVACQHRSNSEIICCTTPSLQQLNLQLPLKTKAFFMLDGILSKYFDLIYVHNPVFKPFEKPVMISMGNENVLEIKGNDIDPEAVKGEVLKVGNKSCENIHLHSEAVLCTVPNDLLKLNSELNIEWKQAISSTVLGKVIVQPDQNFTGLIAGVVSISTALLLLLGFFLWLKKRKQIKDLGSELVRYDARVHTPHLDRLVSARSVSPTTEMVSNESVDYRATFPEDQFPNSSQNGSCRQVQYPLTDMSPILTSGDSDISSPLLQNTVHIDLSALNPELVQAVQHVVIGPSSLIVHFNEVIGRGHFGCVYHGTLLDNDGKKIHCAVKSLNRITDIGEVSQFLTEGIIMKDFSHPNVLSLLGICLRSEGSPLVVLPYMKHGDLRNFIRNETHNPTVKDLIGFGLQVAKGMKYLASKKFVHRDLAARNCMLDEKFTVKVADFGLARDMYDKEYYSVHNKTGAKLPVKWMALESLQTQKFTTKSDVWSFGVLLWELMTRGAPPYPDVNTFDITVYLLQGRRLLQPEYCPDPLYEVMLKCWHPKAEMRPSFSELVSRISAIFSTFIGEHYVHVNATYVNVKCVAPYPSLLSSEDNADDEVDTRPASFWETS
Test [2] deals with T1, Met kinase. Description: Met kinase inhibition, biochemical assay (flashplate method). More on the design: 6His (N); purchased Upstate 14-526; host or cells: Sf21 insect cells (S. frugiperda), baculovirus. As to conditions: read-out: Biochemical assay IC50 (enzyme). The text has this:
Measurement of Met Kinase Activity
According to the manufacturer's data (Met, active, Upstate, catalogue No. 14-526), Met kinase is expressed for the purposes of protein production in insect cells (Sf21; S. frugiperda) and subsequent affinity-chromatographic purification as “N-terminal 6His-tagged” recombinant human protein in a baculovirus expression vector.
Flashplate Method (Met Kinase)
The test plates used are 96-well Flashplate® microtitre plates from Perkin Elmer (Cat. No. SMP200). The components of the kinase reaction described below are pipetted into the assay plate. The Met kinase and the substrate poly Ala-Glu-Lys-Tyr, (pAGLT, 6:2:5:1), are incubated for 3 hrs at room temperature with radioactively labelled ^33P-ATP in the presence and absence of test substances in a total volume of 100 μl. The reaction is terminated using 150 μl of a 60 mM EDTA solution. After incubation for a further 30 min at room temperature, the supernatants are filtered off with suction, and the wells are washed three times with 200 μl of 0.9% NaCl solution each time. The measurement of the bound radioactivity is carried out by means of a scintillation measuring instrument (Topcount NXT, Perkin-Elmer).
The full value used is the inhibitor-free kinase reaction. This should be approximately in the range 6000-9000 cpm. The pharmacological zero value used is staurosporin in a final concentration of 0.1 mM. The inhibitory values (IC50) are determined using the RS1_MTS program.
Kinase reaction conditions per well:
10 μl of substance to be tested in assay buffer with 10% of DMSO
10 μl of ATP (final concentration 1 μM cold, 0.35 μCi of ^33P-ATP)
50 μl of Met kinase/substrate mixture in assay buffer; • (10 ng of enzyme/well, 50 ng of pAGLT/well) • Solutions used: • Assay buffer: • 50 mM HEPES • 3 mM magnesium chloride • 3 μM sodium orthovanadate • 3 mM manganese(II) chloride • 1 mM dithiothreitol (DTT) • pH=7.5 (to be set using sodium hydroxide) • Stop solution: • 60 mM Titriplex III (EDTA) • ^33P-ATP: Perkin-Elmer; • Met kinase: Upstate, Cat. No. 14-526, Stock 1 μg/10 μl; spec. activity 954 U/mg; • Poly-Ala-Glu-Lys-Tyr, 6:2:5:1: Sigma Cat. No. P1152 In-Vivo Tests
Target sequence in this assay (P08581 974-1390 limits assumed): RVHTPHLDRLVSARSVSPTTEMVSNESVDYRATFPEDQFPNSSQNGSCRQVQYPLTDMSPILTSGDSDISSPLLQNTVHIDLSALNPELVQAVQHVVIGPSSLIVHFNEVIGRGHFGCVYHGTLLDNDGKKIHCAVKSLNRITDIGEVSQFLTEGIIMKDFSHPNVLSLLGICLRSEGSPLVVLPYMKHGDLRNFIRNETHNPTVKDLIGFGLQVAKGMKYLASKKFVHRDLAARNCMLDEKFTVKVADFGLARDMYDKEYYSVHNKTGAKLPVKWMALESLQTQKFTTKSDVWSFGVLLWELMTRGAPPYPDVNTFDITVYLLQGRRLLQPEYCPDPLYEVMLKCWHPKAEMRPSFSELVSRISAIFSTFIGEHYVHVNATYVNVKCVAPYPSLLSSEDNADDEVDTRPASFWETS

The pIC50 is −log10 of the IC50, conventionally taken in molar units.

Take `Brc1cnc2nnn(Cc3cccc(-c4ncc(OCCN5CCOCC5)cn4)c3)c2n1` [Compound A1, 6-bromo-1-{3-[5-(2-morpholin-4-ylethoxy)pyrimidin-2-yl]benzyl}-1H-1,2,3-triazolo[4,5-b]-pyrazine]: at Met kinase [1], the pIC50 is 7.00 to 9.00.
Take `Cn1cc(-c2cnc3nnn(Cc4cccc(-c5ncc(OCCN6CCOCC6)cn5)c4)c3n2)cn1` [Compound A2, 6-(1-methyl-1H-pyrazol-4-yl)-1-{3-[5-(2-morpholin-4-ylethoxy)-pyrimidin-2-yl]benzyl}-1H-1,2,3-triazolo[4,5-b]pyrazine]: the pIC50 on Met kinase [2] and at Met kinase [1] was 7.00 to 9.00 in each case.
For `c1cc(Cn2nnc3ccccc32)cc(-c2ncc(OCCN3CCOCC3)cn2)c1` [Compound A3, 1-{3-[5-(2-morpholin-4-ylethoxy)pyrimidin-2-yl]benzyl}-1H-benzotriazole], the pIC50 was 7.00 to 9.00 at Met kinase [2] and 5.00 to 7.00 on Met kinase [1].
The corresponding values for `Cn1cc(-c2cnc3nnn(Cc4cccc(-c5ncc(OC6CCNCC6)cn5)c4)c3n2)cn1` [Compound A6] are 7.00 to 9.00 and 7.00 to 9.00.
For `Cn1cc(-c2cnc3nnn(Cc4cccc(-c5ncc(OCC6CCNCC6)cn5)c4)c3n2)cn1` [Compound A9], in that order: 7.00 to 9.00 and 7.00 to 9.00.
For `Cn1cc(-c2cnc3nnn(Cc4cccc(-c5ncc(-c6cnn(CCN7CCCC7)c6)cn5)c4)c3n2)cn1` [Compound A24, 6-(1-methyl-1H-pyrazol-4-yl)-1-(3-{5-[1-(2-pyrrolidin-1-yl-ethyl)-1H-pyrazol-4-yl]pyrimidin-2-yl}benzyl)-1H-1,2,3-triazolo[4,5-b]-pyrazine hydrochloride], in that order: 7.00 to 9.00 and 7.00 to 9.00.
As to `N#Cc1cccc(-c2cnc3nnn(Cc4cccc(-c5ncc(OC6CCNCC6)cn5)c4)c3n2)c1` [Compound A27], the pIC50 at Met kinase [2] and on Met kinase [1] was 7.00 to 9.00 in each case.
Take `N#Cc1cccc(-c2cnc3nnn(Cc4cccc(-c5ncc(OCC6CCNCC6)cn5)c4)c3n2)c1` [Compound A30]: the pIC50 on Met kinase [2] and at Met kinase [1] was 7.00 to 9.00 each time.
Take `Fc1ccc2nnn(Cc3cccc(-c4ncc(OCCN5CCOCC5)cn4)c3)c2c1F` [Compound A46]: the pIC50 at Met kinase [2] and on Met kinase [1] was 7.00 to 9.00 in each case.
Consider `Clc1ccc2nnn(Cc3cccc(-c4ncc(OCCN5CCOCC5)cn4)c3)c2n1` [Compound A48, 5-chloro-3-{3-[5-(2-morpholin-4-ylethoxy)pyrimidin-2-yl]-benzyl}-3H-1,2,3-triazolo[4,5-b]pyridine], for which the pIC50 on Met kinase [2] is 7.00 to 9.00; on Met kinase [1] it was 5.00 to 7.00.
`Brc1cnc(-c2cccc(Cn3nnc4ncc(Br)nc43)c2)nc1` [Compound B1, 6-bromo-1-[3-(5-bromopyrimidin-2-yl)benzyl]-1H-1,2,3-triazolo[4,5-b]pyrazine]: the pIC50 is 7.00 to 9.00 at Met kinase [2] and 5.00 to 7.00 on Met kinase [1].
For `Cn1cc(Oc2cnc3nnn(Cc4cccc(-c5ncc(Br)cn5)c4)c3n2)cn1` [Compound B5, 1-[3-(5-bromopyrimidin-2-yl)benzyl]-6-(1-methyl-1H-pyrazol-4-yloxy)-1H-1,2,3-triazolo[4,5-b]pyrazine], in that order: 7.00 to 9.00 and 7.00 to 9.00.
Consider `N#Cc1cccc(Oc2cnc3nnn(Cc4cccc(-c5ncc(Br)cn5)c4)c3n2)c1` [Compound B6, 3-{3-[3-(5-bromopyrimidin-2-yl)benzyl]-3H-1,2,3-triazolo[4,5-b]pyrazin-5-yloxy}benzonitrile], for which the pIC50 at Met kinase [2] and on Met kinase [1] was 7.00 to 9.00 throughout.
As to `Fc1cc(F)cc(Oc2cnc3nnn(Cc4cccc(-c5ncc(Br)cn5)c4)c3n2)c1` [Compound B7, 1-[3-(5-bromopyrimidin-2-yl)benzyl]-6-(3,5-difluorophenoxy)-1H-1,2,3-triazolo[4,5-b]pyrazine], the pIC50 at Met kinase [2] and on Met kinase [1] was 7.00 to 9.00 throughout.
In the case of `Oc1cnc(-c2cccc(Cn3nnc4ncc(-c5cc(F)cc(F)c5)nc43)c2)nc1` [Compound B10, 2-{3-[6-(3,5-difluorophenyl)-1,2,3-triazolo[4,5-b]pyrazin-1-ylmethyl]phenyl}-pyrimidin-5-ol], the pIC50 on Met kinase [2] and at Met kinase [1] was 7.00 to 9.00 throughout.
For `CN(C)CCOc1cnc(-c2cccc(Cn3nnc4ncc(-c5cnn(C)c5)nc43)c2)nc1` [Compound B14, dimethyl-[2(2-{3-[6-(1-methyl-1H-pyrazol-4-yl)-1,2,3-triazolo[4,5-b]pyrazin-1-ylmethyl]phenyl}pyrimidin-5-yloxy)ethyl]amine hydrochloride], the pIC50 on Met kinase [2] and on Met kinase [1] was 7.00 to 9.00 in each case.
With `Cn1cc(-c2cnc3nnn(Cc4cccc(-c5ncc(OCCCO)cn5)c4)c3n2)cn1` [Compound B15], the pIC50 at Met kinase [2] and at Met kinase [1] was 7.00 to 9.00 each time.
On to `COCCOc1cnc(-c2cccc(Cn3nnc4ncc(-c5cnn(C)c5)nc43)c2)nc1` [Compound B16], for which the pIC50 at Met kinase [2] and on Met kinase [1] was 7.00 to 9.00 throughout.
On to `CN1CCN(CCOc2cnc(-c3cccc(Cn4nnc5ncc(-c6cnn(C)c6)nc54)c3)nc2)CC1` [Compound B17], for which the negative logarithm of the IC50 (pIC50) at Met kinase [2] and at Met kinase [1] was 7.00 to 9.00 throughout.
For `Cn1cc(-c2cnc3nnn(Cc4cccc(-c5ncc(OCCCN6CCOCC6)cn5)c4)c3n2)cn1` [Compound B18], the pIC50 on Met kinase [2] and on Met kinase [1] was 7.00 to 9.00 each time.
As to `CN1CCN(CCOc2cnc(-c3cccc(Cn4nnc5ncc(-c6cnn(C)c6)nc54)c3)nc2)CC1=O` [Compound B19], the pIC50 on Met kinase [2] and on Met kinase [1] was 7.00 to 9.00 each time.
Take `Cn1cc(-c2cnc3nnn(Cc4cccc(-c5ncc(OCC6CNCCO6)cn5)c4)c3n2)cn1` (stereo not shown) [Compound B20]: the pIC50 at Met kinase [2] and at Met kinase [1] was 7.00 to 9.00 each time.
As to `N#Cc1cccc(-c2cnc3nnn(Cc4cccc(-c5ncc(-c6cnn(CCN7CCCC7)c6)cn5)c4)c3n2)c1` [Compound B21], the pIC50 on Met kinase [2] and at Met kinase [1] was 7.00 to 9.00 each time.
In the case of `N#Cc1cccc(-c2cnc3nnn(Cc4cccc(-c5ncc(OCCN6CCNCC6)cn5)c4)c3n2)c1` [Compound B22], the pIC50 at Met kinase [2] and on Met kinase [1] was 7.00 to 9.00 in each case.
For the molecule `Fc1cc(F)cc(-c2cnc3nnn(Cc4cccc(-c5ncc(OCCN6CCNCC6)cn5)c4)c3n2)c1` [Compound B23], the pIC50 on Met kinase [2] and at Met kinase [1] was 7.00 to 9.00 in each case.
On to `Fc1cc(F)cc(-c2cnc3nnn(Cc4cccc(-c5ncc(OCC6CCNCC6)cn5)c4)c3n2)c1` [Compound B24], for which the negative logarithm of the IC50 (pIC50) at Met kinase [2] and at Met kinase [1] was 7.00 to 9.00 each time.
For `COCCn1cc(-c2cnc3nnn(Cc4cccc(-c5ncc(OCCN6CCOCC6)cn5)c4)c3n2)cn1` [Compound B33], the pIC50 on Met kinase [2] and at Met kinase [1] was 7.00 to 9.00 each time.
Take `OCCn1cc(-c2cnc3nnn(Cc4cccc(-c5ncc(OCCN6CCOCC6)cn5)c4)c3n2)cn1` [Compound B34]: the pIC50 on Met kinase [2] and on Met kinase [1] was 7.00 to 9.00 in each case.
Consider `Clc1ccc2c(c1)nnn2Cc1cccc(-c2ncc(OCCN3CCOCC3)cn2)c1` [Compound B35, 5-Chloro-1-{3-[5-(2-morpholin-4-ylethoxy)pyrimidin-2-yl]benzyl}-1H-benzotriazole], for which the figures for the pIC50 at Met kinase [2] and at Met kinase [1] were 5.00 to 7.00 and below 5.00, respectively.
For `O=[N+]([O-])c1ccc(Br)cc1NCc1cccc(-c2ncc(OCCN3CCOCC3)cn2)c1` [Compound B36, (5-bromo-2-nitrophenyl)-{3-[5-(2-morpholin-4-ylethoxy)-pyrimidin-2-yl]benzyl}amine], in that order: 7.00 to 9.00 and 5.00 to 7.00.
For the molecule `COc1ccc2nnn(Cc3cccc(-c4ncc(OCCCN(C)C)cn4)c3)c2n1` [Compound B37], the negative logarithm of the IC50 (pIC50) on Met kinase [2] and at Met kinase [1] was 7.00 to 9.00 in each case.
